Values joined by “and” are separate entries in the source; they are usually repeats but may differ in a detail not shown here. Identical values can stand only once. One block for each molecule: values may come before it.
Tests used:
[1] = tested on: NB508 mouse pancreatic ductal adenocarcinoma cells; assay: In vitro growth inhibition screen at 5 µM, NB508 cells; format: cell-based; details: 72 h at 37 °C
Text: Figure 1 (A) Structure and crystal packing of previously studied PEB-disubstituted (A.1) and monosubstituted (A.2 and A.3) benzimidazolium salts. Compound A.1 is an efficient chloride transporter forming channels and generating holes in bacterial membranes and red blood cellular membranes. Compound A.2 penetrates phospholipid membranes but is less efficient as ion transporter as it forms more compact aggregates; its toxicity on RBC is lower than compound A.1. The replacement of the phenyl group with a methyl group in compound A.3 results in the formation of even more compact aggregates with even lower toxicity on RBC. (B) Structure of PEB-substituted biguanidium salts. For each biguanide we prepared three series of biguanidium salts with different counterions. (C) Synthesis of 4-(phenylethynyl)benzylbiguanide 1 and 4-(phenylethyl)benzylbiguanide 2; (a) Phenylacetylene, PdCl2PPh3, CuI, PPh3, Et3N, THF, 70 °C, o.n. (b) NaCN(BH3)3, EtOHNH4OAc sat./NH3, 80 °C, o.n (c) Dicyandiamide, TMSCl, THFanh., 145 °C, 1 h (d) Pd/C 10%, H2, EtOH/AcOEt, 60 °C, 2 h. (D) Synthesis of 4-(phenylethynylphenyl)biguanidium 3 and 4-(phenylethylphenyl)biguanidium 4 (a) (1) Boc2O, THF, 2 h, (2) Phenylacetylene, PdCl2PPh3, CuI, PPH3, Et3N, THF, 70°, o.n. (b) TFA, DCM, 60 °C, 2 h (c) Dicyandiamide, TMSCl, THFanh, 145 °C, 1 h (d) Pd/C 10%, H2, EtOH/AcOEt, 60 °C, 2 h. The NMR spectra of the synthesized compounds are given in Supplementary Figs. S1–S24. (E) Relative growth of NB508 mouse pancreatic ductal adenocarcinoma cells and IMR90 fibroblasts exposed to 5 µM of PEB-biguanidium salts. Cells were incubated for 72 h at 37 °C. Errors bars represent the standard error of the mean (SEM), *p < 0.05, **p < 0.01, Student’s t test. (F) Crystal structure of 1b showing its self-assembly in the solid state. Crystal data is available in Supplementary Tables S1–S8 and crystal packing in Supplementary Fig. S25. TEXT PRINTED IN THE PICTURE: (A) A.1: HC50: 0.15 mM | (A) A.2: HC50: 1 mM | (A) A.3: HC50: 150 mM
NB508 is an aggressive pro-metastatic pancreatic cancer cell line that we used previously to study the role of mitochondria in pancreatic cancer. […].

[2] = U-tube experiment (partition across a bulk hydrophobic solvent); format: physicochemical; details: 250 µM on cis side; for Crossing to the trans-aqueous side of the U-tube (in words): up to 72 h; for Trans-side concentration, mean / Trans-side concentration, single replicates: 25°C
Method: (§1) Figure 2 (A) Partition of compounds in an U-tube experiment. Concentration of biguanide on the trans-side of the U-tube at 48 h and 72 h at 25 °C, after addition of 250 µM of biguanide on the cis-side. (B) Variation in the internal pH of HPTS-containing EYPC liposomes. Intravesicular solution: 1 mM HPTS, 10 mM HEPES, and 100 mM NaCl, adjusted to pH = 7.4, and extravesicular solution: 10 mM HEPES and 100 mM NaCl, adjusted to pH = 7.4. Biguanidiums were injected after 50 s at 5 mM (50 mol% relative to the 10 mM EYPC concentration), a NaOH pulse was induced at 300 s, and the liposomes were lysed with Triton-X at 550 s. Each curve is the average of three independent measurements. (C) Fluorescence of safranin O in the EYPC liposomes. Biguanidium salts were injected at 5 mM (50 mol% relative to the 10 mM EYPC concentration) at 50 s. Each curve is the average of three independent measurements. […] Mitochondrial isolation was performed according to the previously reported protocol.
Experimental. U-tube experiment was prepared by adding 800 µL of dichloromethane in a U-shaped tube as a representation of the hydrophobic lipid membrane. On the receiving end (trans side) of the tube was added 300 µL of distilled water while the other side (cis side) was filled with 300 µL of a 250 µM solution of the compound of interest at 25°C. At 48h and 72h, 100 µL aliquot of the trans side was diluted in 900 µL methanol and monitored by LCMS (292 m/z). Area under curve (AUC) was measured and fitted on a calibration curve.

[3] = tested on: mitochondria of KP4 cells expressing pMXs-3XHA-EGFP-OMP25; assay: Mitochondrial permeation and accumulation (anti-HA IP, MALDI-MS); format: cell-based, human; details: 15 µM, 3 h
Method: as §1

[4] = tested on: KP4 cells; assay: Cell death assay (trypan blue), KP4 cells; format: cell-based, human; details: 15 µM for 24 h
Text: Experimental. […] At the end of the treatments, adherent cells were recovered by trypsinization, along with floating cells recovered by centrifugation of the culture medium. Floating and adherent cells were pooled together. The faction of dead cells was quantified by counting the proportion of trypan blue-positive (dead cells) and the proportion of living cells (trypan blue-negative).

[5] = tested on: KP4 cells; assay: Mitochondrial morphology by anti-TOMM20 immunofluorescence, KP4 cells; format: cell-based, human; details: 24 h, 1b 15µM, metformin 5mM
Method: The action of biguanides in mitochondria can lead to morphological alterations that include disorganisation of the cristae. […].  Figure 4 Effects of biguanides on mitochondrial morphology. (A) Mitochondrial morphology in KP4 cells 24 h following the indicated treatments as visualised by anti-TOMM20 immunofluorescence. Scale bar = […]. […] The data represents the mean of 2 biological replicates and for each replicate three counts of 50 cells were done. n = 300 cells per treatment. Data was analyzed with one way ANOVA followed by Tukey HSD test.
Experimental. KP-4 cells were seeded at 50% confluency on slides in 6-well plates. […] After 24h of treatment, cells were washed twice with PBS1X then were fixed during 10 minutes at 4°C with 4% paraformaldehyde. Cells were washed again three times with PBS1X then permeabilized during 5 min in PBS1X, 2%BSA, 0,2%Triton X-100. Slides were washed three times 10 minutes with 1XPBS, 2%BSA, then incubated overnight with primary antibody anti-TOMM20 (Rabbit, 1:150, Santa Cruz, sc-11415) diluted in 1XPBS, 2%BSA. Slides were washed three times 10 minutes with 1XPBS, 2%BSA then incubated 1 hour at RT with anti-Rabbit-AlexaFluor568 secondary antibody (Goat, 1:1000, ThermoFisher Scientific). Cells were washed four times 10 minutes with 1XPBS then mounted with Vectashield mouting media containing DAPI (Vector laboratories H-1200). […]

SMILES: N=C(N)NC(=N)NCc1ccc(C#Cc2ccccc2)cc1 [1b, 4-(phenylethynyl)benzylbiguanide]
Growth inhibition of NB508 cells [1]: most important antiproliferative activities | Crossing to the trans-aqueous side of the U-tube (in words) [2]: able to partition rapidly into the chloroform and cross to the trans-aqueous side | Trans-side concentration, mean ([2]; 48h): 64,7 µM | Trans-side concentration, single replicates ([2]; 48h): 90,1 µM and 57,1 µM and 46,8 µM | Trans-side concentration, mean ([2]; 72h): 92,3 µM | Trans-side concentration, single replicates ([2]; 72h): 78,6 µM and 99,3 µM and 99,1 µM | Mitochondrial penetration [3]: able to efficiently penetrate mitochondria | Increase of the fraction of dead KP4 cells [4]: ~ 20% | Effect on mitochondrial morphology [5]: punctuated pattern typical of fragmented mitochondria

Crossing to the trans-aqueous side of the U-tube (in words) [2]: only traces
SMILES: CN(C)C(=N)NC(=N)N [metformin, 1,1-dimethylbiguanide, reference compound]
Growth inhibition of NB508 cells [1]: no effect was observed | Effect on mitochondrial morphology [5]: loss of the filamentous mitochondrial network

— paper PMC8110578, “Phenylethynylbenzyl-modified biguanides inhibit pancreatic cancer tumor growth” (Scientific Reports, 2021)
